Columns and labels:
CS-induced ALI mice = assay: CS-induced lung injury model: lung MPO assay; assay type: in vivo, Balb/c mice; conditions: CS exposure; CT-NA 10 and 30 mg/kg, Dex 1 mg/kg; p<0.01
Protocol: Model preparation: The mice were randomly divided into 5 groups (12 mice in each group), which were the control group (the mice were exposed to fresh air), the saline group (the mice were exposed to cigarette smoke), dexamethasone (Dex) group (1 mg/kg) (the mice were exposed to cigarette smoke), CT-NA 10 mg/kg group and CT-NA 30 mg/kg group (the mice were exposed to cigarette smoke). According to the grouping, the mice were intragastrically administered saline, Dex and CT-NA, respectively. Thereafter, the mice were exposed to fresh air or cigarette smoke generated from 3R4F research-grade cigarettes (containing about 600 mg TPM/m^3 and 29.9 mg nicotine/m^3) in a cuboid plastic box (65×50x×45 cm). Ten cigarettes were burned every day for seven days. After one cigarette was burned, the next cigarette was ignited. […] The lung tissue was collected for determination of lung weight coefficient, histological examination and MPO activity.
In order to evaluate MPO activity, 50 mg strips of left lung tissue were washed, and then homogenized with normal saline. MPO activity was determined by measuring the changes in absorbance at 460 nm according to the detection standard by using MPO assay kit.

neutrophils = assay: PGD2-induced neutrophils migration, Boyden chamber assay (Example 1); assay type: cell-based, mice; conditions: pretreatment CT-NA 1 and 10 μM (p<0.01) or OC459; PGD2 1 μM; 4 hrs
Protocol: The mice were intragastrically administered glycogen (1.5%) at the dose range of 20 ml/kg of body weight. 4 hrs later, the mice were euthanized to isolate neutrophils from the peritoneal lavage. The effect of CT-NA on neutrophils migration was detected by using the Boyden chamber assay kit (3 μm pore size). PGD2 was used as a chemoattractant because the activated PGD2/CRTH2 receptors promoted the migration of neutrophils. Initially, the isolated neutrophils (4×10^5) were diluted in 100 μL HBSS and allowed to migrate toward PGD2 (0.1, 1 and 10 μM) for 4 hrs to find out the suitable PGD2 concentration. Then, the isolated neutrophils (4×10^5) were pretreated with CT-NA (1 and 10 μM), and their migration to PGD2 (1 μM) was evaluated by counting the migrated neutrophils. Moreover, another potent CRTH2 inhibitor OC459 was used to countercheck the outcomes of CT-NA.

[1] = test system: NF-κB signalling pathway in the lung of LPS-induced ALI mice; assay: Western blotting of NF-κB signalling pathway, lung tissue of ALI mice; assay type: in vivo, Balb/c mice; conditions: CT-NA 10 mg/kg or 30 mg/kg
Protocol: Specific pathogen-free (SPF) Balb/c mice (♂/♀; 20-26 g; 8 weeks old) were purchased from Shanghai SIPPR-BK Experimental Animal Co., Ltd. Mice were kept in an isolated ventilated cage in an environment of 40-60% humidity, 24±2° C., and 12 hrs/12 hrs dark-light cycle, and had free access to food and water. The method for preparing the LPS-induced ALI model was simply described as follows. The mice were randomly divided into a control group (12 mice) and an LPS group (48 mice). The LPS group (48 mice) was further divided into four subgroups (12 mice in each subgroup). The unanaesthetized mice in the four subgroups of LPS were intragastrically administered with normal saline (NS), CT-NA at 10 mg/kg or 30 mg/kg, and Dex at 1 mg/kg, respectively. One hour later, the mice were anesthetized with sodium pentobarbital (intraperitoneal injection at 40 mg/kg), and then subjected to intratracheal instillation of NS to control group and LPS (4 mg/kg) to all LPS subgroups. 12 hrs later, the unanaesthetized mice of the LPS group were intragastrically administered with NS, CT-NA at 10 mg/kg or 30 mg/kg, or Dex at 1 mg/kg, respectively (FIG. 16). […] 24 hrs after LPS challenge, the oxygen saturation (SO2) of all mice was measured by a Moor VMS-OXY™ instrument which measured SO2 (%) in the microcirculation at the wavelength range of 500 to 650 nm. […]

RAW 264.7 macrophages = assay: In vitro cytokines assay via ELISA, CSE- and PGD2-stimulated macrophages; assay type: cell-based, mouse; conditions: CT-NA 10 and 100 μM, p<0.01
Protocol: The cigarette smoke generated from 3R4F research grade cigarettes was passed through 50 ml PBS by a vacuum pump. Five cigarettes were used to make smoke that passed 50 ml PBS, and each cigarette was lit for 5 minutes. The control solution was prepared in the absence of cigarettes by using a similar method. After extraction, CSE was stored at −80° C.
RAW 264.7 macrophages were added to two 12-well plates. Thereafter, the medium of the 12-well plate was replaced with serum-free RPMI-1640 medium, and the macrophages were incubated for 10-12 hrs and then exposed to CT-NA (10 and 100 μM) for 1 hour. One hour later, one 12-well plate was treated with CSE (4%) and the other with PGD2 (10 μM) for 24 hrs. After the treatment, the supernatant of the treated cells was collected to measure the protein levels of TNF-α, IL-1β, IL-6, KC and IL-10 extracellularly secreted using ELISA kits according to the method of the instructions. Subsequently, RNA samples from each treated plate were extracted and reverse-transcripted into cDNA with HiScript5xQRTSuperMix, and then subjected to RT-PCR. RT-PCR was performed with the BioRad CFX96 Touch™ Real-Time PCR Detection System (BioRad, USA) using AceQ® qPCR SYBR Green Master Mix. And the threshold cycle numbers were obtained using BioRad CFX Manager Software. The primers used for RT-PCR reaction were shown in Table 1. β-actin was used as an internal control. The RT-PCR reactions were triplicated and the relative expression of target mRNA was normalized by the respective β-actin.

CN([C@@H]1CCc2c(CC(=O)[O-])c3cccnc3n2C1)S(=O)(=O)c1ccc(F)cc1.[Na+] [Sodium salt hydrate]
MPO activity of lung tissues (CS-induced ALI mice): attenuated
PGD2-induced neutrophils migration (neutrophils): significantly attenuated
degradation of IκBα and P65 induced by LPS [1]: strongly reversed
LPS-induced IκBα and P65 activation ([1]; dose-dependent): reduced
protein levels of IL-1β, IL-6, TNF-α and KC, CSE-stimulated (RAW 264.7 macrophages; 1 h pretreatment, CSE (4%) 24 hrs): inhibited
protein levels of IL-1β, IL-6, TNF-α and KC, PGD2-stimulated (RAW 264.7 macrophages; 1 h pretreatment, PGD2 (10 μM) 24 hrs): inhibited
CSE-induced inhibition of IL-10, protein (RAW 264.7 macrophages; CSE (4%), dose-dependent): reversed
PGD2-induced inhibition of IL-10, protein (RAW 264.7 macrophages; PGD2 (10 μM), dose-dependent): reversed

Reference: patent US20220098197A1, “SALTS OF HETEROCYCLIC COMPOUND AND USE THEREOF” (priority 2019, published 2022)
